Results published in patent US20230092490A1, “PHARMACEUTICAL COMPOSITIONS COMPRISING DASATINIB ANHYDROUS AND USES THEREOF” (ZENTIVA K.S., priority 2020, published 2023).
Read-outs that look alike come from different tables or passages of the source.

Experiments:
[1] = Preliminary bioequivalence study of DA1 vs. RP in eighty healthy subjects; type: in vivo, human; conditions: total study population
Protocol: First, a preliminary bioequivalence study assessed in-vivo absorption of DA1 and RP. This bioequivalence study and its results are summarized in Example 2, below, and data are shown in FIG. 3 to FIG. 6 for four exemplary subjects A to D in that study.
Example 3, together with corresponding Table 4, presents additional results from the clinical study of Example 2, comparing the bioavailability of DA1 vs RP.
A preliminary bioequivalence study in eighty (80) healthy subjects was conducted to test the in-vivo absorption of RP and DA1.
Additional data from the bioequivalence study of Example 2, which compared the bioequivalence of DA1 against the reference product (“RP”) are summarised in Table 4 below.

[2] = Oral bioavailability and pharmacokinetics of dasatinib monohydrate (background); conditions: human, in vivo, read-out: subjects exhibiting atypical pharmacokinetic profiles (reduced bioavailability, likely achlorhydria or hypochlorhydria)
[3] = pH 2.6; cited from earlier work
[4] = in vivo; cited from earlier work
[5] = cited from earlier work
[6] = administered 10 hours following the H2 antagonist famotidine
[7] = co-administration with aluminium hydroxide or magnesium hydroxide
[8] = single 100 mg dose 22 hours following a 4-day 40-mg omeprazole dose at steady state

With `Cc1nc(Nc2ncc(C(=O)Nc3c(C)cccc3Cl)s2)cc(N2CCN(CCO)CC2)n1` [Dasatinib anhydrous, N-(2-chloro-6-methylphenyl)-2-[[6-[4-(2-hydroxyethyl)-1-piperazinyl]-2-methyl-4-pyrimidinyl]amino]-5-thiazolecarboxamide] the “absorption across all subjects” value [1] was “absorbed in all subjects”.
For `Cc1nc(Nc2ncc(C(=O)Nc3c(C)cccc3Cl)s2)cc(N2CCN(CCO)CC2)n1` [dasatinib monohydrate, N-(2-chloro-6-methylphenyl)-2-[[6-[4-(2-hydroxyethyl)-1-piperazinyl]-2-methyl-4-pyrimidinyl]amino]-5-thiazolecarboxamide], the percentage of subjects with atypical pharmacokinetic profiles [2] is listed as 3.5 to 7.5%, the “thermodynamic (equilibrium) solubility” value [3] is listed as 18.4 mg/mL and the “time at which peak concentration is reached” value [4] is listed as 1 to 2 h. For the same compound, the “reduction of AUC” value [5, 6] was 61%, the “reduction of Cmax” value [5, 6] was 63% and the “reduction in Cmax” value [5, 7] was 58%. The “reduction of the area under the curve (AUC)” value [5, 7] was 55%, the “reduction of AUC” value [5, 8] was 43% and the “reduction of Cmax” value [5, 8] was 42%.
